The structures appear in SMILES notation. Like-named read-outs stand apart in the source and are kept apart here.

Test [1] has as its target T1, HIV-1 protease (Q7S mutant form) (Human immunodeficiency virus type 1 group M subtype B, UniProt P04585, Q495S).
T1 construct: made in house
Put plainly: HIV-1 Protease RET assay. The format is biochemical. Conditions: Ave. Ki (nM), RET assay, Q7S enzyme, Morrison tight binding fit. The essentials: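 Q7S HIV-1 protease, refolded from urea, 2 nM active dimer with 5 μM EDANS/DABCYL peptide cleaved at Tyr-Pro; fluorescence 340/490 nm. 12 min at 37 °C in 0.1M sodium acetate pH 4.8, 1M NaCl, 10% DMSO. Ki from Morrison tight-binding fit.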

Test [2] has as its system HIV-1 (HIV-1 RF, HIV-1 NL4-3) in CEM-SS / MT-2 cells. In words: Cytopathic effect (CPE) inhibition assay (XTT/MTT dye reduction). Format: cell-based. In a few lines: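 CEM-SS or MT-2 cells were infected with HIV-1 RF or NL4-3 (moi 0.025–0.819) and plated at 2×10^4 cells/well with half-log compound dilutions for 6 days. Viability was read by XTT formazan at 450 nm after 4 h. EC50 restores formazan to 50% of uninfected untreated cells, CC50 halves it in uninfected cells, and TI = CC50/EC50.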
For orientation: Protection from cytopathic effect is a common read-out in antiviral testing.

Test [3] relates to HIV-1 NL4-3 or HIV-1 NL4-3(I84V/L90M). In words: Susceptibility assay, p24 ELISA in infected MT-2 cells. Format: cell-based. The note with it: Human immunodeficiency virus 1, NL43, MT2, read-out: EC50 or IC50 (mM), values without asterisk (EC50). The essentials: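 MT-2 cells infected with HIV-1 NL4-3 or the I84V/L90M mutant were incubated with 0.5 log serial compound dilutions for three days. Supernatant p24 was quantified by ELISA. EC50 is the concentration reducing p24 to 50% of infected, compound-free controls.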
On the technique in general: In an ELISA, binding on a coated surface is turned into a signal by an enzyme label.

[4] abbreviates: Human immunodeficiency virus 1, NL43, read-out: Ave CPE EC50.

For orientation: Ki means a measure of affinity in units of concentration, obtained from inhibition or displacement. Low readings indicate higher affinity, high ones lower affinity. By EC50 is commonly meant the concentration at which the effect is half-maximal. As to `C#CCNC(=O)[C@H]1N(C(=O)[C@@H](O)[C@H](Cc2ccccc2)NC(=O)c2cccc(O)c2C)CC(F)(F)C1(C)C` [Example C17, (S)-4,4-Difluoro-1-[(2S,3S)-2-hydroxy-3-(3-hydroxy-2-methyl-benzoylamino)-4-phenyl-butyryl]-3,3-dimethyl-pyrrolidine-2-carboxylic acid prop-2-ynylamide], the Ki in test [1] was < 0.1 nM. Further, the EC50 came out at 115 nM in test [2] (setting [4]) and 186 nM in test [3].
Consider `Cc1c(O)cccc1C(=O)N[C@@H](Cc1ccccc1)[C@H](O)C(=O)N1CSC2(CCCCC2)[C@H]1C(=O)N[C@@H]1C=CCCC1` [Example B84, (R)-3-((2S,3S)-2-Hydroxy-3-{[1-(3-hydroxy-2-methyl-phenyl)-methanoyl]-amino}-4-phenyl-butanoyl)-1-thia-3-aza-spiro[4.5]decane-4-carboxylic acid (S)-cyclohex-2-enylamide], for which, in test [1], the Ki is < 0.1 nM. Besides, the EC50 was determined as 9 nM in test [2] (setting [4]) and 686 nM in test [3].
`Cc1c(O)cccc1C(=O)N[C@@H](Cc1ccccc1)[C@H](O)C(=O)N1CSC2(CCCC2)[C@H]1C(=O)N[C@H]1CCCc2ccccc21` [Example C37, (R)-3-((2S,3S)-2-Hydroxy-3-{[1-(3-hydroxy-2-methyl-phenyl)-methanoyl]-amino}-4-phenyl-butanoyl)-1-thia-3-aza-spiro[4.4]nonane-4-carboxylic acid (1,2,3,4-tetrahydro-naphthalen-1-yl)-amide] gave a Ki in test [1] of 0.61 nM. Also, the EC50 in test [2] (setting [4]) was found to be 27 nM; in test [3], 1290 nM.
The corresponding values for `Cc1c(O)cccc1C(=O)N[C@@H](Cc1ccccc1)[C@H](O)C(=O)N1CSC(C)(C)[C@H]1C(=O)N[C@H]1CCCc2sccc21` [Example A50, 3-[2-Hydroxy-3-(3-hydroxy-2-methyl-benzoylamino)-4-phenyl-butyryl]-5,5-dimethyl-thiazolidine-4-carboxylic acid (4,5,6,7-tetrahydro-benzo[b]thiophen-4-yl)-amide] are < 0.1 nM, 24 nM and 125 nM.
The corresponding values for `Cc1c(O)cccc1C(=O)N[C@@H](Cc1ccccc1)[C@H](O)C(=O)N1CSC(C)(C)[C@H]1C(=O)NCc1nccs1` [Example A41, (R)-3-((2S,3S)-2-Hydroxy-3-{[1-(3-hydroxy-2-methyl-phenyl)-methanoyl]-amino}-4-phenyl-butanoyl)-5,5-dimethyl-thiazolidine-4-carboxylic acid (thiazol-2-ylmethyl)-amide] are 0.17 nM, 145 nM and 242 nM.
For `Cc1c(O)cccc1C(=O)N[C@@H](Cc1ccccc1)[C@H](O)C(=O)N1CSC(C)(C)[C@H]1C(=O)NCc1ccoc1` [Example A45, (R)-3-((2S,3S)-2-Hydroxy-3-{[1-(3-hydroxy-2-methyl-phenyl)-methanoyl]-amino}-4-phenyl-butanoyl)-5,5-dimethyl-thiazolidine-4-carboxylic acid (furan-3-ylmethyl)-amide] the same measures were < 0.1 nM, 34 nM and 48 nM.
`C/C=C(\C)CNC(=O)[C@H]1N(C(=O)[C@@H](O)[C@H](Cc2ccccc2)NC(=O)c2cccc(O)c2C)CSC12CCCC2` [Example C34, (R)-3-((2S,3S)-2-Hydroxy-3-{[1-(3-hydroxy-2-methyl-phenyl)-methanoyl]-amino}-4-phenyl-butanoyl)-1-thia-3-aza-spiro[4.4]nonane-4-carboxylic acid ((E)-2-methyl-but-2-enyl)-amide]: in test [1], the Ki was < 0.1 nM. For the same compound, the half-maximal effective concentration (EC50) in test [2] (Human immunodeficiency virus 1, NL43, read-out: Ave CPE EC50 (mM)) was found to be 22 nM; in test [3] it was 627 nM.
In test [1], `CCCNC(=O)[C@H]1N(C(=O)[C@@H](O)[C@H](Cc2ccccc2)NC(=O)c2cccc(O)c2C)CSC12CCCC2` [Example C33, (R)-3-((2S,3S)-2-Hydroxy-3-{[1-(3-hydroxy-2-methyl-phenyl)-methanoyl]-amino}-4-phenyl-butanoyl)-1-thia-3-aza-spiro[4.4]nonane-4-carboxylic acid propylamide] registered a Ki of 0.13 nM. The EC50 amounted to 45 nM in test [2] (setting [4]) and 1270 nM in test [3].

Source of the values: patent US7094909B2, “HIV protease inhibitors, compositions containing the same, their pharmaceutical uses and materials for their synthesis” (priority 2001, dated 2006).
